Assay results published in patent US20170190671A1, “BIS(ARYL)CATECHOL DERIVATIVES AS HERBICIDES” (E I DU PONT DE NEMOURS AND COMPANY, priority 2014, published 2017).

Legend:
Experiment in all cases: Test D postemergence
Assay type in all cases: in vivo
Details in all cases: scale 0 to 100
[1] = system: Italian ryegrass (Lolium multiflorum)
From the text: (§1) Seeds of plant species selected from bluegrass (annual bluegrass, Poa annua), blackgrass (Alopecurus myosuroides), canarygrass (Phalaris minor), chickweed (common chickweed, Stellaria media), cutleaf geranium (Geranium dissectum), galium (catchweed bedstraw, Galium aparine), downy bromegrass (Bromus tectorum), field poppy (Papaver rhoeas), field violet (Viola arvensis), green foxtail (Setaria viridis), deadnettle (henbit deadnettle, Lamium amplexicaule), Italian ryegrass (Lolium multiflorum), kochia (Kochia scoparia), lambsquarters (Chenopodium album), oilseed rape (Brassica napus), pigweed (Amaranthus retroflexus), chamomile (scentless chamomile, Matricaria inodora), Russian thistle (Salsola kali), speedwell (bird's-eye speedwell, Veronica persica), spring barley (Hordeum vulgare), spring wheat (Triticum aestivum), wild buckwheat (Polygonum convolvulus), wild mustard (Sinapis arvensis), wild oat (Avenafatua), wild radish (Raphanus raphanistrum), windgrass (Apera spica-venti), winter barley (Hordeum vulgare), and winter wheat (Triticum aestivum) were planted into a silt loam soil and treated preemergence with test chemicals formulated in a non-phytotoxic solvent mixture which included a surfactant.
(§2) At the same time, these species were planted in pots containing Redi-Earth® planting medium (Scotts Company, 14111 Scottslawn Road, Marysville, Ohio 43041) comprising spaghnum peat moss, vermiculite, wetting agent and starter nutrients and treated with postemergence applications of the test chemicals formulated in the same manner. Plants ranged in height from 2 to 18 cm (1- to 4-leaf stage). Treated plants and controls were maintained in a controlled growth environment for 14 to 21 days after which time all species were compared to controls and visually evaluated. Plant response ratings, summarized in Table D, are based on a scale of 0 to 100 where 0 is no effect and 100 is complete control. A dash (-) response means no test result.

[2] = system: blackgrass (Alopecurus myosuroides)
From the text: as §1, §2

[3] = system: bluegrass (annual bluegrass, Poa annua)
From the text: as §1, §2

[4] = system: canarygrass (Phalaris minor)
From the text: as §1, §2

[5] = system: chamomile (scentless chamomile, Matricaria inodora)
From the text: as §1, §2

[6] = system: chickweed (common chickweed, Stellaria media)
From the text: as §1, §2

[7] = system: deadnettle (henbit deadnettle, Lamium amplexicaule)
From the text: as §1, §2

[8] = system: downy bromegrass (Bromus tectorum)
From the text: as §1, §2

[9] = system: field violet (Viola arvensis)
From the text: as §1, §2

[10] = system: galium (catchweed bedstraw, Galium aparine)
From the text: as §1, §2

[11] = system: green foxtail (Setaria viridis)
From the text: as §1, §2

kochia (Kochia scoparia) = system: kochia (Kochia scoparia)
From the text: as §1, §2

[12] = system: pigweed (Amaranthus retroflexus)
From the text: as §1, §2

[13] = system: speedwell (bird's-eye speedwell, Veronica persica)
From the text: as §1, §2

[14] = system: wild buckwheat (Polygonum convolvulus)
From the text: as §1, §2

[15] = system: wild mustard (Sinapis arvensis)
From the text: as §1, §2

[16] = system: wild radish (Raphanus raphanistrum)
From the text: as §1, §2

[17] = system: winter barley (Hordeum vulgare)
From the text: as §1, §2

[18] = system: winter wheat (Triticum aestivum)
From the text: as §1, §2

SMILES: N#Cc1cccc(Oc2ncc(Cl)cn2)c1Oc1ncc(Cl)cn1 [Compound 3, 2,3-bis[(5-chloro-2-pyrimidinyl)oxy]benzonitrile]
- Plant response rating, Ryegrass, Italian ([1]; 16 g ai/ha): 0
- Plant response rating, Ryegrass, Italian ([1]; 31 g ai/ha): 10
- Plant response rating, Ryegrass, Italian ([1]; 62 g ai/ha): 10
- Plant response rating, Ryegrass, Italian ([1]; 125 g ai/ha): 15
- Plant response rating, Blackgrass ([2]; 16 g ai/ha): 5
- Plant response rating, Blackgrass ([2]; 31 g ai/ha): 10
- Plant response rating, Blackgrass ([2]; 62 g ai/ha): 15
- Plant response rating, Blackgrass ([2]; 125 g ai/ha): 20
- Plant response rating, Bluegrass ([3]; 16 g ai/ha): 15
- Plant response rating, Bluegrass ([3]; 31 g ai/ha): 20
- Plant response rating, Bluegrass ([3]; 62 g ai/ha): 25
- Plant response rating, Bluegrass ([3]; 125 g ai/ha): 30
- Plant response rating, Canarygrass ([4]; 16 g ai/ha): 5
- Plant response rating, Canarygrass ([4]; 31 g ai/ha): 10
- Plant response rating, Canarygrass ([4]; 62 g ai/ha): 15
- Plant response rating, Canarygrass ([4]; 125 g ai/ha): 20
- Plant response rating, Chamomile ([5]; 16 g ai/ha): 0
- Plant response rating, Chamomile ([5]; 31 g ai/ha): 0
- Plant response rating, Chamomile ([5]; 62 g ai/ha): 20
- Plant response rating, Chamomile ([5]; 125 g ai/ha): 35
- Plant response rating, Chickweed ([6]; 16 g ai/ha): 50
- Plant response rating, Chickweed ([6]; 31 g ai/ha): 70
- Plant response rating, Chickweed ([6]; 62 g ai/ha): 80
- Plant response rating, Chickweed ([6]; 125 g ai/ha): 100
- Plant response rating, Deadnettle ([7]; 16 g ai/ha): 60
- Plant response rating, Deadnettle ([7]; 31 g ai/ha): 70
- Plant response rating, Deadnettle ([7]; 62 g ai/ha): 70
- Plant response rating, Deadnettle ([7]; 125 g ai/ha): 80
- Plant response rating, Bromegrass, Downy ([8]; 16 g ai/ha): 10
- Plant response rating, Bromegrass, Downy ([8]; 31 g ai/ha): 20
- Plant response rating, Bromegrass, Downy ([8]; 62 g ai/ha): 25
- Plant response rating, Bromegrass, Downy ([8]; 125 g ai/ha): 25
- Plant response rating, Field Violet ([9]; 16 g ai/ha): 90
- Plant response rating, Field Violet ([9]; 31 g ai/ha): 100
- Plant response rating, Field Violet ([9]; 62 g ai/ha): 100
- Plant response rating, Field Violet ([9]; 125 g ai/ha): 100
- Plant response rating, Galium ([10]; 16 g ai/ha): 75
- Plant response rating, Galium ([10]; 31 g ai/ha): 95
- Plant response rating, Galium ([10]; 62 g ai/ha): 100
- Plant response rating, Galium ([10]; 125 g ai/ha): 100
- Plant response rating, Foxtail, Green ([11]; 16 g ai/ha): 10
- Plant response rating, Foxtail, Green ([11]; 31 g ai/ha): 15
- Plant response rating, Foxtail, Green ([11]; 62 g ai/ha): 20
- Plant response rating, Foxtail, Green ([11]; 125 g ai/ha): 40
- Plant response rating, Kochia (kochia (Kochia scoparia); 16 g ai/ha): 85
- Plant response rating, Kochia (kochia (Kochia scoparia); 31 g ai/ha): 100
- Plant response rating, Kochia (kochia (Kochia scoparia); 62 g ai/ha): 100
- Plant response rating, Kochia (kochia (Kochia scoparia); 125 g ai/ha): 100
- Plant response rating, Pigweed ([12]; 16 g ai/ha): 100
- Plant response rating, Pigweed ([12]; 31 g ai/ha): 100
- Plant response rating, Pigweed ([12]; 62 g ai/ha): 100
- Plant response rating, Pigweed ([12]; 125 g ai/ha): 100
- Plant response rating, Speedwell ([13]; 16 g ai/ha): 85
- Plant response rating, Speedwell ([13]; 31 g ai/ha): 85
- Plant response rating, Speedwell ([13]; 62 g ai/ha): 100
- Plant response rating, Speedwell ([13]; 125 g ai/ha): 100
- Plant response rating, Buckwheat, Wild ([14]; 16 g ai/ha): 85
- Plant response rating, Buckwheat, Wild ([14]; 31 g ai/ha): 90
- Plant response rating, Buckwheat, Wild ([14]; 62 g ai/ha): 95
- Plant response rating, Buckwheat, Wild ([14]; 125 g ai/ha): 100
- Plant response rating, Mustard, Wild ([15]; 16 g ai/ha): 45
- Plant response rating, Mustard, Wild ([15]; 31 g ai/ha): 60
- Plant response rating, Mustard, Wild ([15]; 62 g ai/ha): 65
- Plant response rating, Mustard, Wild ([15]; 125 g ai/ha): 85
- Plant response rating, Radish, Wild ([16]; 16 g ai/ha): 50
- Plant response rating, Radish, Wild ([16]; 31 g ai/ha): 60
- Plant response rating, Radish, Wild ([16]; 62 g ai/ha): 75
- Plant response rating, Radish, Wild ([16]; 125 g ai/ha): 85
- Plant response rating, Barley, Winter ([17]; 16 g ai/ha): 0
- Plant response rating, Barley, Winter ([17]; 31 g ai/ha): 5
- Plant response rating, Barley, Winter ([17]; 62 g ai/ha): 10
- Plant response rating, Barley, Winter ([17]; 125 g ai/ha): 15
- Plant response rating, Wheat, Winter ([18]; 16 g ai/ha): 0
- Plant response rating, Wheat, Winter ([18]; 31 g ai/ha): 10
- Plant response rating, Wheat, Winter ([18]; 62 g ai/ha): 10
- Plant response rating, Wheat, Winter ([18]; 125 g ai/ha): 15
